Publication PMC7012964, “Biopharmaceutical Understanding of Excipient Variability on Drug Apparent Solubility Based on Drug Physicochemical Properties. Case Study: Superdisintegrants” (The AAPS Journal, 2020)
Converted amounts (≈) assume the structure as drawn. Where two headings read alike, the source gives them in different places.

Tests used:
[1] = design: method as in earlier work; settings: ref (20), (22), (24), (25), (27), (30), (31), (34); cited from earlier work
[2] = ref (20), (22), (23), (25), DrugBank, (28), (31), (33); cited from earlier work
[3] = Shake-flask drug solubility in absence of excipient (reference solubility); type: physicochemical
Procedure: (§1) Compendial media (0.1 N HCl pH 1, phosphate buffer pH 6.8) were prepared according to the method described in European Pharmacopoeia ([35]). Fasted State Simulated Gastric Fluid (FaSSGF) and Fasted State Simulated Intestinal Fluid (FaSSIF-V2) were prepared as described by Jantratid et al.([36]).
(§2) Drug solubility studies in the absence and presence of excipient were performed in triplicate using the shake-flask method ([38]). Drug excess amount and 2% w/w or 5% w/w of each excipient were weighed and placed in centrifuge tubes. […] The physical mixtures were vortexed for 3 min. Then 5 mL of each medium was added in the tubes and the samples were placed in a shaking water bath (37°C, 200 strokes per minute (spm)). […] Filter adsorption studies were prior performed in triplicate for each drug. […] Filtered samples were further diluted (if needed) with the corresponding medium and analysed by HPLC (Supplementary Table I). Analytical HPLC procedures for drug quantification in the samples were modifications of already published methods. Drug quantification was made based on calibration curves. Standards were formulated from concentrated stock solution consisting of drug dissolved in MeOH. […] Drug solubility was calculated based on the sample drug concentration measured.

[4] = Relative effect (RE) of superdisintegrant on drug apparent solubility (shake-flask, physical mixtures); type: physicochemical
Procedure: as §1, §2

[5] = aqueous buffer, thermodynamic from solid, Phosphate buffer pH 6.8 (compendial), 37°C, mean ± SD, read-out: Reference solubility
[6] = fassgf or other biorelevant, thermodynamic from solid, FaSSGF (biorelevant), 37°C, mean ± SD, read-out: Reference solubility
[7] = simulated gastric fluid, thermodynamic from solid, 0.1 N HCl pH 1 (compendial), 37°C, mean ± SD, read-out: Reference solubility
[8] = thermodynamic from solid, FaSSIF-V2 (biorelevant), 37°C, mean ± SD, read-out: Reference solubility

Structure (SMILES) | solubility at 24 h [3, 5] [µg/mL] | solubility at 0.5 h ([3]; compendial media (0.1 N HCl pH 1; phosphate buffer pH 6.8), 37 °C, thermodynamic from solid, compendial media, 0.5 h, read-out: Solubility of pure drug) [µg/mL] | solubility at 24 h ([3]; compendial media (0.1 N HCl pH 1; phosphate buffer pH 6.8), compendial media, read-out: Solubility of pure drug) [µg/mL] | solubility at 24 h [3, 6] [µg/mL] | solubility at 24 h [3, 7] [µg/mL] | solubility at 24 h [3, 8] [µg/mL] | Relative effect (RE) of excipient on drug solubility ([4]; CCS(L), high level, phosphate buffer pH 6.8, 24 h) [%] | Relative effect (RE) of excipient on drug solubility ([4]; 5% CCS(H), FaSSIF-V2, 24 h) [%] | Relative effect (RE) of excipient on drug solubility ([4]; CCS(H), low level, FaSSIF-V2, 24 h) [%] | Relative effect (RE) of excipient on drug solubility ([4]; Explotab CLV (SSG), high excipient level, FaSSIF-V2, 24 h) [%] | Relative effect (RE) of excipient on drug solubility ([4]; Glycolys (SSG), both excipient levels, FaSSIF-V2, 24 h) | Relative effect (RE) of excipient on drug solubility ([4]; Glycolys (SSG), high excipient level, 0.1 N HCl pH 1, 24 h) [%] | Relative effect (RE) of excipient on drug solubility ([4]; Glycolys (SSG), low excipient level, 0.1 N HCl pH 1, 24 h) [%] | Relative effect (RE) of excipient on drug solubility ([4]; Glycolys LV (SSG), high excipient level, FaSSIF-V2, 24 h) [%] | Solubility (based on BCS classification) [1] | Ionization (type) [2]
NC(=O)N1c2ccccc2C=Cc2ccccc21 [CBZ, Carbamazepine] | 227 (≈ 961 µM) | 350 (≈ 1480 µM) | 250 (≈ 1060 µM) | 368 (≈ 1560 µM) | 265 (≈ 1120 µM) | 280 (≈ 1190 µM) | 37 |  |  |  |  |  |  |  | Low (27) | Neutral
OCCN(CCO)c1nc(N2CCCCC2)c2nc(N(CCO)CCO)nc(N3CCCCC3)c2n1 [DPL, Dipyridamole] | 5 (≈ 9.91 µM) |  |  | 8600 (≈ 17000 µM) | 13000 (≈ 25800 µM) | 13 (≈ 25.8 µM) |  |  |  |  |  |  |  |  | Low (30) | Weak base
CC(C)Cc1ccc(C(C)C(=O)O)cc1 (centres unmarked) [IBU, Ibuprofen] | 5500 (≈ 26700 µM) |  |  | 44 (≈ 213 µM) | 43 (≈ 208 µM) | 1500 (≈ 7270 µM) |  |  |  |  |  |  |  |  |  | Weak acid

Second part, led by results:

solubility at 24 h [3, 5] [µg/mL] | solubility at 0.5 h ([3]; compendial media (0.1 N HCl pH 1; phosphate buffer pH 6.8), 37 °C, thermodynamic from solid, compendial media, 0.5 h, read-out: Solubility of pure drug) [µg/mL] | solubility at 24 h ([3]; compendial media (0.1 N HCl pH 1; phosphate buffer pH 6.8), compendial media, read-out: Solubility of pure drug) [µg/mL] | solubility at 24 h [3, 6] [µg/mL] | solubility at 24 h [3, 7] [µg/mL] | solubility at 24 h [3, 8] [µg/mL] | Relative effect (RE) of excipient on drug solubility ([4]; CCS(L), high level, phosphate buffer pH 6.8, 24 h) [%] | Relative effect (RE) of excipient on drug solubility ([4]; 5% CCS(H), FaSSIF-V2, 24 h) [%] | Relative effect (RE) of excipient on drug solubility ([4]; CCS(H), low level, FaSSIF-V2, 24 h) [%] | Relative effect (RE) of excipient on drug solubility ([4]; Explotab CLV (SSG), high excipient level, FaSSIF-V2, 24 h) [%] | Relative effect (RE) of excipient on drug solubility ([4]; Glycolys (SSG), both excipient levels, FaSSIF-V2, 24 h) | Relative effect (RE) of excipient on drug solubility ([4]; Glycolys (SSG), high excipient level, 0.1 N HCl pH 1, 24 h) [%] | Relative effect (RE) of excipient on drug solubility ([4]; Glycolys (SSG), low excipient level, 0.1 N HCl pH 1, 24 h) [%] | Relative effect (RE) of excipient on drug solubility ([4]; Glycolys LV (SSG), high excipient level, FaSSIF-V2, 24 h) [%] | Structure (SMILES) | Solubility (based on BCS classification) [1] | Ionization (type) [2]
15000 (≈ 99200 µM) |  |  | 17000 (≈ 112000 µM) | 16000 (≈ 106000 µM) | 17000 (≈ 112000 µM) |  |  |  |  |  |  |  |  | CC(=O)Nc1ccc(O)cc1 [PRC, Paracetamol] |  | Neutral
< 0.015 |  |  | 1.2 (≈ 1.7 µM) | 11 (≈ 15.6 µM) | 0.05 (≈ 0.0709 µM) |  | 31 | −40 | 25 | approximately 50% | −25 | −23 | 42 | CCC(C)n1ncn(-c2ccc(N3CCN(c4ccc(OCC5COC(Cn6cncn6)(c6ccc(Cl)cc6Cl)O5)cc4)CC3)cc2)c1=O (centres unmarked) [ITZ, Itraconazole] | Low (34) | Weak base
